According to patent US20210369677A1, “SMALL MOLECULE ACTIVATORS OF POLYCYSTIN-2 (PKD2) AND USES THEREOF” (Northwestern University, priority 2020, published 2021):

Legend:
polycystin-2 channels [1] = target: T1, polycystin-2 channels (Mus musculus, UniProt O35245); assay: Inside-out cilia patch of pIMCD cells, calcium opening of polycystin-2 channels; format: cell-based; details: Pkd2+/+ mice; read-out: EC50, potency of calcium opening polycystin-2 channels
T1 construct: the mouse channel orthologue under endogenous expression in the kidney collecting duct; endogenous in cells; host or cells: primary inner medullary collecting duct (pIMCD) cells of ARL13B-EGFP mice
T1 sequence (O35245 1-966): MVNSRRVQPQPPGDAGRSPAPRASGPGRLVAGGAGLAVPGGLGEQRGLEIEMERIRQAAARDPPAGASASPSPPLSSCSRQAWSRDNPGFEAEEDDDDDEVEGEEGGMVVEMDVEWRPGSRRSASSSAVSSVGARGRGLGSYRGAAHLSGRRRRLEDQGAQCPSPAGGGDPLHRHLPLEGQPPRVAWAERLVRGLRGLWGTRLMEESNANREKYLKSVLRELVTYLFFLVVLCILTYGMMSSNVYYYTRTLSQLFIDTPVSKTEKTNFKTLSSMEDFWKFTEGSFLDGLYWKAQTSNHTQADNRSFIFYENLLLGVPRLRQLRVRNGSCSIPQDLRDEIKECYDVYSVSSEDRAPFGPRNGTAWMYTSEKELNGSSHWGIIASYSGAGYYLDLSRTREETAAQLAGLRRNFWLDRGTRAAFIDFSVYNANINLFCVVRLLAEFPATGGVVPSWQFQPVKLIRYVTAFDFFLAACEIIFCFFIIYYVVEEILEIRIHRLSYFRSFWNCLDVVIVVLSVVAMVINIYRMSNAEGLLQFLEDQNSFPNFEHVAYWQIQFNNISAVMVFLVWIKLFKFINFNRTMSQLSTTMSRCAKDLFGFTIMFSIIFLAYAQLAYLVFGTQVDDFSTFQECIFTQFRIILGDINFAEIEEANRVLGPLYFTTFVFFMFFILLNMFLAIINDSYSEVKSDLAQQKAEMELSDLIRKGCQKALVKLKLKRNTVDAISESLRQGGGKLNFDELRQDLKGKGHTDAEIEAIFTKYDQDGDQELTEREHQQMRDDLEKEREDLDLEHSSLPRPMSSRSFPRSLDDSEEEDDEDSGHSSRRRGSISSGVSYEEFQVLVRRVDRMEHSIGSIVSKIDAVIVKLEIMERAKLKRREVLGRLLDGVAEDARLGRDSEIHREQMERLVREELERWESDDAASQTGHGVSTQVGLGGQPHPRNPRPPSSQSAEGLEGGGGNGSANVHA
Procedure: (§1) Cell culture of primary inner medullary collecting duct cells and immortalized cell lines. Primary inner medullary collecting ducts cells (pIMCD) were isolated from WT or Pkd2^del-Z/del-Z mice co-expressing the ARL13B-EGFP cilia reporter using the previously described method (Liu et al., 2018). Briefly, inner medullae were removed from the kidney and disassociated using a Dulbecco's phosphate buffered solution (DPBS) containing 2 mg/ml collagenase A and 1 mg/ml hyaluronidase. After mechanical disassociation on ice, medullary cells were cultured in Dulbecco's modified essential medium (DMEM) supplemented with 10% fetal bovine serum (FBS) and 100 units/ml penicillin/100 μg/ml streptomycin. Cilia were patched from cells within 6 days after isolation and within one passage. HEK PKD2^Null cell lines were generated using the CRISPR/Cas9 gene editing kit available from Addgene and authenticated using PCR analysis, as previously described (Liu et al., 2018). […]
(§2) Electrophysiology. The electrophysiologist was blinded by a third party in the laboratory, where test groups were assigned a letter to conceal the genetic identity of the cells being evaluated. […] Ciliary ion currents were recorded using borosilicate glass electrodes polished to resistances of 14-23 MΩ using the cilium patch method previously described (Vien et al., 2020). Single channel currents measured in the inside-out configuration were recorded in symmetrical sodium concentrations. […] Calcium was buffered with 5 EGTA (ethylene glycol-bis(o-aminoethyl ether)-N,N,N′,N′-tetraacetic acid), 5 Na4-BAPTA (Glycine, N, N′-[1,2-ethanediylbis(oxy-2,1-phenylene)]bis[N-(carboxymethyl)]-,tetrasodium) and 0.5 EDTA […]; free calcium was calculated using Maxchilator and titration of 1 M CaCl2) solution (Bers et al., 2010); pH was adjusted to 7.3 using NaOH. […] Whole cell currents used to measure CDD were also recorded in symmetrical sodium concentration, placing the internal recording solution in the pipette electrode and the external recording solution in the bath. […]

polycystin-2 channels [2] = assay: as above; format: cell-based, mouse; details: Pkd2+/del-Z mice; read-out: EC50, potency of calcium opening polycystin-2 channels
Procedure: as §1, §2

## [Ca+2] [Ca^2+, calcium]
polycystin-2 channels [1]
  EC50: 1200 ± 400 nM
polycystin-2 channels [2]
  EC50: 1400 ± 400 nM
